# According to PubChem BioAssay AID1963980 (Molecular Pharmacology Branch, DTP, NCI, 2024):
# pIC50: −log10 of the molar value. Several values for one entry are separate records, joined by “and”; a condition that tells them apart may be missing. Equal values may be shown once.
# Test system: 475296-252-R-J1-PDC spheroid viability
# Test: Anticancer human tumor 475296-252-R-J1-PDC patient-derived rectal carcinoma cell line growth inhibition [PI3K]
# Conditions: spheroids with HUVEC and MSC; for viability, T/C: stronger effect = lower value
# Text: Combinatorial screen of targeted agents with the PI3K inhibitors inavolisib, alpelisib, duvelisib, and copanlisib in multi-cell type tumor spheroids
# A high-throughput screen of multi-cell type tumor spheroids was designed to identify active combinations of targeted small molecules and PI3K pathway inhibitors. Complex spheroids include a stromal component modeled by human endothelial cells (HUVEC) and fibroblasts modeled by human mesenchymal stem cells (MSCs). The concentration ranges selected for each drug and investigational agent were based upon clinically achievable concentrations if the clinical Cmax of the agent was known.
# Compounds. The drugs and investigational agents: inavolisib (NSC800729), alpelisib (NSC765974), duvelisib (NSC772469), copanlisib (NSC816437), ipatasertib (NSC767898), afuresertib (NSC778305), talazoparib (NSC767125), sapanisertib (NSC764658), selumetinib (NSC741078), tovorafenib (DAY101, NSC766906), vemurafenib (NSC761431), ravoxertinib (NSC781343), sotorasib (NSC818433), MRTX1133 (NSC 836407), abemaciclib (NSC 768073), palbociclib (NSC758247), venetoclax (NSC 766270), SY5609 (NSC837396), enzalutamide (NSC755605), and darolutamide (NSC825331), were obtained from the National Cancer Institute (NCI) Developmental Therapeutics Program Chemical Repository. The FDA-approved anticancer drug set is available from the NCI Developmental Therapeutics Program. […] The stock solutions were prepared in dimethyl sulfoxide (DMSO, Sigma-Aldrich, St. Louis, MO, cat. D2650) at 800-fold the tested concentration and stored at -70 degrees C prior to their use. All drugs and investigational agents were tested over a range starting from a high concentration at or near the clinical Cmax and decreasing in half-log increments. If the clinical Cmax for an agent had not been determined, the highest concentration tested was 10 microM.
# Cell Culture. All cells were maintained in an incubator at 37 degrees C and 5% CO2 with 95% humidity. The PDC lines were cultured according to standard operating procedures established by the NCI PDMR (https://pdmr.cancer.gov/sops/default.htm). All PDCs were thawed and cultured in Matrigel-coated flasks prepared with a working solution of 1X Ham's F-12 nutrient mix, without supplementation (Invitrogen, Waltham, MA, cat. 11765054), 100 U/mL penicillin-streptomycin (Invitrogen, cat. 15140122), and 2.5% Matrigel (Corning Inc., Corning, NY, cat. 354248) for the first three passages. The 354836-022-R-J1-PDC, 475296-252-R-J1-PDC, and 997726-040-R-J2-PDC lines were cultured in 6A media, which includes advanced DMEM/F-12 (Thermo Fisher Scientific, cat. 12634028), 10 mM HEPES (Thermo Fisher Scientific, cat. 15630080), 1X GlutaMAX supplement (Thermo Fisher Scientific, cat. 35050061), 0.1 mg/mL primocin (InvivoGen, San Diego, CA, cat. ant-pm-2), 10% defined fetal bovine serum, heat inactivated (HyClone Laboratories Inc., Logan, UT, cat. SH30070.03HI), 50% L-WRN conditioned media (ATCC, cat. CRL-3276), 1.25 mM N-Acetyl-L-cysteine (Sigma-Aldrich, cat. A9165), 10 mM nicotinamide (Sigma-Aldrich, cat. N0636), 1X B-27 supplement (Thermo Fisher Scientific, cat. 17504044), 1X N-2 supplement (Thermo Fisher Scientific, cat. 17502048), and 10 microM Y-27632 dihydrochloride (Tocris Bioscience, Bristol, United Kingdom, cat. 1254). The 624824-186-R-J2-PDC line was cultured in 6C/Colon 1B media, which includes all 6A media components plus 50 ng/mL human EGF recombinant protein (Thermo Fisher Scientific, cat. PHG0311). […]
# 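Note: spheroids exposed to agents for seven days before readout.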
smiles,measurement,setting,value
C#Cc1c(F)ccc2cc(O)cc(-c3ncc4c(N5CC6CCC(C5)N6)nc(OCC56CCCN5CC(F)C6)nc4c3F)c12 (stereo not given),"viability, T/C",compound 0.0316 µM,95.9% [middle of 4 runs]
same,"viability, T/C",compound 0.1 µM,90.9% [middle of 4 runs]
same,"viability, T/C",compound 0.316 µM,84.4% [middle of 4 runs]
same,"viability, T/C",compound 1 µM,70.1% [middle of 4 runs]
same,"viability, T/C",compound 10 µM,56.8% [middle of 4 runs]
same,pIC50,curve of compound,5.08 and < 5.00
C=CC(=O)N1CCN(c2nc(=O)n(-c3c(C)ccnc3C(C)C)c3nc(-c4c(O)cccc4F)c(F)cc23)C(C)C1 (stereo not given),"viability, T/C",compound 0.1 µM,98.7% [middle of 4 runs]
same,"viability, T/C",compound 0.316 µM,97% [middle of 4 runs]
same,"viability, T/C",compound 1 µM,105% [middle of 4 runs]
same,"viability, T/C",compound 3.16 µM,110% [middle of 4 runs]
same,"viability, T/C",compound 10 µM,110% [middle of 4 runs]
same,pIC50,curve of compound,< 5.00
CNC(=O)c1ccc(N2C(=S)N(c3ccc(C#N)c(C(F)(F)F)c3)C(=O)C2(C)C)cc1F,"viability, T/C",compound 0.1 µM,100% [middle of 4 runs]
same,"viability, T/C",compound 0.316 µM,96.5% [middle of 4 runs]
same,"viability, T/C",compound 1 µM,99.5% [middle of 4 runs]
same,"viability, T/C",compound 3.16 µM,102% [middle of 4 runs]
same,"viability, T/C",compound 10 µM,98.3% [middle of 4 runs]
same,pIC50,curve of compound,< 5.00
Cn1cnc2c(F)c(Nc3ccc(Br)cc3Cl)c(C(=O)NOCCO)cc21 + CC(Nc1ccc2c(c1)OCCn1cc(N3C(=O)OCC3C(F)F)nc1-2)C(N)=O,pIC50,"curve of first compound, second compound 0.00316 µM",< 5.52
same,pIC50,"curve of first compound, second compound 0.01 µM",< 5.52
same,pIC50,"curve of first compound, second compound 0.0316 µM",< 5.52
same,pIC50,"curve of first compound, second compound 0.1 µM",5.92
same,pIC50,"curve of first compound, second compound 0.316 µM",6.38
same,pIC50,"curve of first compound, second compound 1 µM",6.85
same,"viability, T/C","second compound 0.00316 µM, first compound 0.00949 µM",96.4%
same,"viability, T/C","second compound 0.00316 µM, first compound 0.03 µM",93.1%
same,"viability, T/C","second compound 0.00316 µM, first compound 0.0949 µM",89%
same,"viability, T/C","second compound 0.00316 µM, first compound 0.3 µM",74.8%
same,"viability, T/C","second compound 0.00316 µM, first compound 0.949 µM",74.8%
same,"viability, T/C","second compound 0.00316 µM, first compound 3 µM",60.8%
same,"viability, T/C","second compound 0.01 µM, first compound 0.00949 µM",104%
same,"viability, T/C","second compound 0.01 µM, first compound 0.03 µM",90.9%
same,"viability, T/C","second compound 0.01 µM, first compound 0.0949 µM",90.4%
same,"viability, T/C","second compound 0.01 µM, first compound 0.3 µM",65.2%
same,"viability, T/C","second compound 0.01 µM, first compound 0.949 µM",72.8%
same,"viability, T/C","second compound 0.01 µM, first compound 3 µM",61.4%
same,"viability, T/C","second compound 0.0316 µM, first compound 0.00949 µM",95.4%
same,"viability, T/C","second compound 0.0316 µM, first compound 0.03 µM",96%
same,"viability, T/C","second compound 0.0316 µM, first compound 0.0949 µM",84.8%
same,"viability, T/C","second compound 0.0316 µM, first compound 0.3 µM",77.3%
same,"viability, T/C","second compound 0.0316 µM, first compound 0.949 µM",67.8%
same,"viability, T/C","second compound 0.0316 µM, first compound 3 µM",52.3%
same,"viability, T/C","second compound 0.1 µM, first compound 0.00949 µM",78.8%
same,"viability, T/C","second compound 0.1 µM, first compound 0.03 µM",82.9%
same,"viability, T/C","second compound 0.1 µM, first compound 0.0949 µM",71.5%
same,"viability, T/C","second compound 0.1 µM, first compound 0.3 µM",65%
same,"viability, T/C","second compound 0.1 µM, first compound 0.949 µM",53%
same,"viability, T/C","second compound 0.1 µM, first compound 3 µM",40.4%
same,"viability, T/C","second compound 0.316 µM, first compound 0.00949 µM",76.5%
same,"viability, T/C","second compound 0.316 µM, first compound 0.03 µM",89.5%
same,"viability, T/C","second compound 0.316 µM, first compound 0.0949 µM",66%
same,"viability, T/C","second compound 0.316 µM, first compound 0.3 µM",54.8%
same,"viability, T/C","second compound 0.316 µM, first compound 0.949 µM",38.7%
same,"viability, T/C","second compound 0.316 µM, first compound 3 µM",23.6%
same,"viability, T/C","second compound 1 µM, first compound 0.00949 µM",84.5%
same,"viability, T/C","second compound 1 µM, first compound 0.03 µM",70.2%
same,"viability, T/C","second compound 1 µM, first compound 0.0949 µM",57%
same,"viability, T/C","second compound 1 µM, first compound 0.3 µM",38.4%
same,"viability, T/C","second compound 1 µM, first compound 0.949 µM",25.4%
same,"viability, T/C","second compound 1 µM, first compound 3 µM",13.5%
